Data set [1] relates to CD8 positive T-cells of HLA-A2402 positive healthy donors. Nature of the data set: ELISPOT assay of IFN-γ. Format: cell-based, human. To be noted: T-cell lines stimulated by peptide-pulsed dendritic cells, incubated with peptide-pulsed T2-A24 cells. Here is the method:
Subsequently, self-derived dendritic cells were pulsed at room temperature for 2 to 4 hours with each of the Ep-CAM synthesis peptides with a concentration of 10 μM in an AIM-V culture medium (product of Gibco) containing 5×10^−5 M β-mercaptoethanol, followed by irradiation (33Gy).
The dendritic cells (1×10^5 cells) were then cocultivated in a culture tube with CD8 positive T lymphocytes (1×10^6 lymphocytes) in a RPMI1640 culture medium containing 10% human blood serum, 25 ng/mL recombinant human IL-7 (product of R&D systems company), and 5 ng/mL recombinant human IL-12 (product of R&D systems company).
After seven days of cultivation, the cells were stimulated by adding 1×10^5 peptide-pulsed self-derived dendritic cells prepared as above. After a further seven days of cultivation, the cells were stimulated 3 times by the same procedure. After each restimulation, human recombinant IL-2 (product of Takeda Pharmaceutical Company, Ltd.) was added to give a final concentration of 20 units/ml. Actively proliferating cells were divided into 2 or 3 tubes as necessary, and cultured in a fresh culture medium containing 20 units/ml of IL-2. […]
The plate was incubated at 37° C. for 20 hours in a 5% CO2 incubator, and thoroughly washed with PBS containing 0.05% Tween 20. […] The number of diffused large spots was counted under the microscope.

Data set [2] deals with HLA-A2402 (Homo sapiens, UniProt P04439, D101N/D140Y/D185E/E176V/E190D/F33S/G103R/G107R/I119L/I121M/I306V/K335N/L105A/L180Q/L300P/N151K/N90K/Q86E/Q94H/R106L/R138H/R89G/T104I/T345S/V100E/W191G/Y123F). In words: MHC stabilization assay using T2-A24 cells. Format: binding. To be noted: ranking among the seven peptides.
Description: For the evaluation of the HLA-A2402 binding efficiency of the synthetic peptides, an MHC stabilization assay was conducted using T2-A24 cells (cell line in which the plasmid expressing HLA-A2402 molecules was transfected to T2[174×CEM.T2:ATCC accession number: CRL-1992]) according to the procedure of Kuzushima et al. (Blood, 98:1872-1881, 2001).
To be specific, each peptide with a concentration of 10 μM was incubated at 26° C. for 16 hours in a 200 μL RPMI1640 culture medium containing T2-A24 cells (2×10^5 cells), 0.1% FCS, and 5×10^−5 M β-mercaptoethanol, followed by a further incubation at 37° C. for 3 hours. After incubation, cell-surface HLA-A2402 molecules were stained with an anti-HLA-A2402 monoclonal antibody and the FITC-labeled antibody of (3) above. The expression level was determined by FACSCalibur and the mean fluorescence intensity (MFI) was recorded.
The % MFI increase was calculated by the following formula: % MFI increase=100×(MFI of group administered with peptide−MFI of group not administered with peptide)/(MFI of group not-administered with peptide).
Data set [3] relates to T2-A24 cells. In words: 51Cr release assay of C27 against peptide-pulsed T2-A24. Format: cell-based. To be noted: effector to target ratio of 1.
In data set [4] the test system is PC9. Nature of the data set: Cold target inhibition assay. The data set is classed as cell-based. The settings on record: peptide 1×10^−5 M pulsed T2-A24 cells. Here is the method: Cold target inhibition assay was carried out according to the method of Arai et al. (Blood, 97:2903-2907, 2001). […] After several washings, the resultants were incubated with 2×10^4 effector cells for 1 hour to yield a ratio of peptide-pulsed T2-A24 cells to target cells of 40:1, 20:1, 10:1, and 5:1. 2×10^3 51Cr-labeled PC9 cell lines were added to each well. The cytotoxicity was determined as described in the item 7) regarding CTL assays.

With “YYVDEKAPEF (… PROTEIN EPITOPE PEPTIDE …) [Ep250, Ep-CAM peptide, amino acid positions 250-259]”, the “production of IFN-γ spots” value in data set [1] is on record as “specifically produced IFN-γ spots”. Consider “EMGEMHREL (… PROTEIN EPITOPE PEPTIDE …) [Ep304, Ep-CAM peptide, amino acid positions 304-312]”, for which the “affinity for the HLA-A2402” value in data set [2] is listed as “lowest affinity”. For the compound `CC[C@H](C)[C@H](NC(=O)[C@H](Cc1ccccc1)NC(=O)[C@H](CCCCN)NC(=O)[C@@H]1CCCN1C(=O)[C@H](CC(=O)O)NC(=O)[C@H](CC(C)C)NC(=O)[C@H](CCC(N)=O)NC(=O)[C@H](Cc1ccc(O)cc1)NC(=O)[C@@H](N)CCCNC(=N)N)C(=O)O` [Ep173], the “peptide concentration at which C27 demonstrated cytotoxicity against pulsed T2-A24 cells” value in data set [3] is listed as 100 pM. Also, in data set [4], the “inhibition of C27-mediated cytotoxicity against PC9 by peptide-pulsed T2-A24 cold target cells” value was “specifically inhibited”.

Turning to “RYLRDQQLL (SYTHETIC PROTEIN EPITOPE PEPTIDE …) [ENV584, human immunodeficiency virus-1 (HIV-1) envelope peptide, residues 584-592, control, reference compound]”, in data set [1], the “production of IFN-γ spots” value is on record as “not observed”.

These data come from patent publication US7846651B2, “Epitope/peptide recognized by HLA-A2402-restricted Ep-CAM-specific CTL and use of the same” (Aichi Prefecture, priority 2004, dated 2010).
